The values below are quoted from earlier work in patent US20200261422A1, “METHODS FOR […] […] HUMAN PATIENTS USING I[…]-2 […]” (Massachusetts Institute of Technology, priority 2019, published 2020).

Each structure is given as a SMILES string.

For series [1], the system named is effects of dexmedetomidine (α2 adrenergic receptor agonist). Conditions: intramuscular injection; dexmedetomidine e.g. DEXDOMITOR and DEXDOMITOR 0.1.
For series [2] the following is noted: in vivo.

Take `CCC1(c2cnc[nH]2)Cc2ccccc2C1` [atipamezole, 4-(2-ethyl-2,3-dihydro-1H-inden-2-yl)-1H-imidazole]: the “time to reverse the effects of dexmedetomidine” value in series [1] is 5 to 10 min.
`Cc1cccc([C@H](C)c2cnc[nH]2)c1C` [dexmedetomidine, Dexmedetomidine]: in series [2], the terminal elimination half-life entry was “about 2 hours”.
